One compound from patent US20100125053A1, “Allosteric Modulation of the Dopamine Transporter Protein for the Treatment of HIV-1 Induced Neurologic Dysfunction” (priority 2008, published 2010) can be followed below.

This test concerns striatal synaptosomes. Put plainly: [3H]leucine uptake assay in rat striatal synaptosomes (electrochemical gradients). The settings on record: 15 min preincubation, [3H]leucine 10 min. It counts as cell-based. How it is done:
[^3H]Leucine Uptake Assay. […] The uptake assay was performed in duplicate with a final volume of 250 μl. […] TatΔ31-61 and leucine were chosen as negative and positive controls, respectively. Assay tubes were placed in an oxygenated metabolic shaker at 34° C. for 15 min. Subsequently, 1 μM [^3H]leucine (final concentration, 25 μl) was added to each tube and incubation was continued for 10 min at 34° C. in the metabolic shaker. […] Nonspecific uptake for [^3H]leucine and [^3H]DA was determined in the presence of 10 mM L-lysine and 10 μM nomifensine, respectively. Incubation was terminated by the addition of 3 ml of ice-cold assay buffer, followed by immediate filtration through Whatman GF/B glass fiber filters. Filters were washed 3 times with 3 ml ice-cold assay buffer using a Brandel cell harvester.

Regarding `CC(C)C[C@H](N)C(=O)O` [leucine], the inhibition at 1 µM (1 μM) was around 10%. Besides, the inhibition at 10 µM (10 μM, read-out: inhibition / decrease of [3H]leucine uptake) was around 40%.
